Measured values taken from PubChem BioAssay (NCI).
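Exposure lasted 48 hours, with cells grown in 96-well plates and compounds tested at five concentrations. TGI: concentration producing complete growth inhibition.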

What was measured:
Test in all cases: DTP human tumour cell line panel, 48 h
M14 melanoma = test system: M14 melanoma
U251 CNS = test system: U251 CNS
SF-295 CNS = test system: SF-295 CNS
SNB-75 CNS = test system: SNB-75 CNS
RPMI-8226 leukemia = test system: RPMI-8226 leukemia
CAKI-1 renal = test system: CAKI-1 renal
UACC-257 melanoma = test system: UACC-257 melanoma
OVCAR-8 ovarian = test system: OVCAR-8 ovarian
DLD-1 colon = test system: DLD-1 colon
UO-31 renal = test system: UO-31 renal
HT29 colon = test system: HT29 colon
IGROV1 ovarian = test system: IGROV1 ovarian
NCI-H522 lung = test system: NCI-H522 lung
HOP-62 NSCLC = test system: HOP-62 NSCLC
786-0 renal = test system: 786-0 renal
DMS 273 small cell lung = test system: DMS 273 small cell lung
SK-MEL-5 melanoma = test system: SK-MEL-5 melanoma
NCI-H23 lung = test system: NCI-H23 lung
TK-10 renal = test system: TK-10 renal
SF-539 CNS = test system: SF-539 CNS
MOLT-4 leukemia = test system: MOLT-4 leukemia
KM20L2 colon = test system: KM20L2 colon
SN12C renal = test system: SN12C renal
EKVX NSCLC = test system: EKVX NSCLC
SR leukemia = test system: SR leukemia
HOP-92 NSCLC = test system: HOP-92 NSCLC
SNB-78 CNS = test system: SNB-78 CNS
CCRF-CEM leukemia = test system: CCRF-CEM leukemia
SNB-19 CNS = test system: SNB-19 CNS
RXF 393 renal = test system: RXF 393 renal
KM12 colon = test system: KM12 colon
HOP-18 NSCLC = test system: HOP-18 NSCLC
LXFL 529 NSCLC = test system: LXFL 529 NSCLC
A498 renal = test system: A498 renal
HL-60(TB) leukemia = test system: HL-60(TB) leukemia
SK-MEL-2 melanoma = test system: SK-MEL-2 melanoma
HCT-116 colon = test system: HCT-116 colon
SF-268 CNS = test system: SF-268 CNS
MALME-3M melanoma = test system: MALME-3M melanoma
K-562 leukemia = test system: K-562 leukemia
SK-OV-3 ovarian = test system: SK-OV-3 ovarian
OVCAR-3 ovarian = test system: OVCAR-3 ovarian
XF 498 CNS = test system: XF 498 CNS
NCI-H460 lung = test system: NCI-H460 lung
OVCAR-5 ovarian = test system: OVCAR-5 ovarian
RXF-631 renal = test system: RXF-631 renal
M19-MEL melanoma = test system: M19-MEL melanoma
A549 NSCLC = test system: A549 NSCLC
UACC-62 melanoma = test system: UACC-62 melanoma
SW-620 colon = test system: SW-620 colon
COLO 205 colon = test system: COLO 205 colon
DMS 114 small cell lung = test system: DMS 114 small cell lung
LOX IMVI melanoma = test system: LOX IMVI melanoma
NCI-H226 lung = test system: NCI-H226 lung
HCT-15 colon = test system: HCT-15 colon
OVCAR-4 ovarian = test system: OVCAR-4 ovarian

CCN(CC)c1ccc(N=Nc2ccc(-c3nc4cccn(C)c-4n3)cc2)cc1
TGI (M14 melanoma): 24.4 µM | TGI (U251 CNS): 16.3 µM | TGI (SF-295 CNS): 19.4 µM | TGI (SNB-75 CNS): 38.9 µM | TGI (RPMI-8226 leukemia): 7.07 µM | TGI (CAKI-1 renal): 41.5 µM | TGI (UACC-257 melanoma): 42.3 µM | TGI (OVCAR-8 ovarian): 24 µM | TGI (DLD-1 colon): 36.1 µM | TGI (UO-31 renal): 41 µM | TGI (HT29 colon): 13.8 µM | TGI (IGROV1 ovarian): 25 µM | TGI (NCI-H522 lung): 19.9 µM | TGI (HOP-62 NSCLC): 24.7 µM | TGI (786-0 renal): 17 µM | TGI (DMS 273 small cell lung): 13.2 µM | TGI (SK-MEL-5 melanoma): 16.8 µM | TGI (NCI-H23 lung): 34.7 µM | TGI (TK-10 renal): 68.2 µM | TGI (SF-539 CNS): 25.8 µM | TGI (MOLT-4 leukemia): 9.32 µM | TGI (KM20L2 colon): 27.8 µM | TGI (SN12C renal): 19.3 µM | TGI (EKVX NSCLC): 84.9 µM | TGI (SR leukemia): 14.8 µM | TGI (HOP-92 NSCLC): 33 µM | TGI (SNB-78 CNS): 77.2 µM | TGI (CCRF-CEM leukemia): 19.8 µM | TGI (SNB-19 CNS): 52.4 µM | TGI (RXF 393 renal): 11.8 µM | TGI (KM12 colon): 24.9 µM | TGI (HOP-18 NSCLC): 89.9 µM | TGI (LXFL 529 NSCLC): 15.8 µM | TGI (A498 renal): 28.3 µM | TGI (HL-60(TB) leukemia): 4.79 µM | TGI (SK-MEL-2 melanoma): 35.3 µM | TGI (HCT-116 colon): 15.6 µM | TGI (SF-268 CNS): 50.1 µM | TGI (MALME-3M melanoma): 26.8 µM | TGI (K-562 leukemia): 11.9 µM | TGI (SK-OV-3 ovarian): 43.5 µM | TGI (OVCAR-3 ovarian): 23.1 µM | TGI (XF 498 CNS): 28.1 µM | TGI (NCI-H460 lung): 17.3 µM | TGI (OVCAR-5 ovarian): 26.3 µM | TGI (RXF-631 renal): 33.7 µM | TGI (M19-MEL melanoma): 15.9 µM | TGI (A549 NSCLC): 25.6 µM | TGI (UACC-62 melanoma): 27.1 µM | TGI (SW-620 colon): 22.9 µM | TGI (COLO 205 colon): 27.9 µM | TGI (DMS 114 small cell lung): 13 µM | TGI (LOX IMVI melanoma): 6.42 µM | TGI (NCI-H226 lung): 43.8 µM | TGI (HCT-15 colon): 21 µM | TGI (OVCAR-4 ovarian): 31.2 µM
